Activity calls are given as the source filed them. The rule behind the calls is not given here.
What was measured:
HepG2 [1] = test: Antiproliferative activity against human HepG2 cells assessed as inhibition of cell proliferation at 30 uM measured after 48 hrs by MTT assay relative to control; assay type: functional
HepG2 [2] = test: Antiproliferative activity against human HepG2 cells assessed as inhibition of cell proliferation at 100 uM measured after 48 hrs by MTT assay relative to control; assay type: functional
SMMC-7721 [3] = test: Antiproliferative activity against human […] cells assessed as inhibition of cell proliferation at 30 uM measured after 48 hrs by MTT assay relative to control; assay type: functional
[4] = Cytotoxicity against human QSG7701 cells assessed as inhibition of cell proliferation at 100 uM measured after 48 hrs by MTT assay relative to control; assay type: cell-based
[5] = Cytotoxicity against human QSG7701 cells assessed as inhibition of cell proliferation at 30 uM measured after 48 hrs by MTT assay relative to control; assay type: cell-based
SMMC-7721 [6] = test: Antiproliferative activity against human […] cells assessed as inhibition of cell proliferation at 100 uM measured after 48 hrs by MTT assay relative to control; assay type: functional
Mus musculus [7] = test: Downregulation of Bcl-2 in Kunming mouse implanted with mouse H22 cells at 800 uM measured after 48 hrs by immunofluorescence analysis; assay type: functional
Mus musculus [8] = test: Upregulation of phosphorylated JNK in Kunming mouse implanted with mouse H22 cells assessed as activation of p53 at 800 uM measured after 48 hrs by immunofluorescence analysis; assay type: functional
Mus musculus [9] = test: Upregulation of phosphorylated p38 in Kunming mouse implanted with mouse H22 cells assessed as activation of p53 at 800 uM measured after 48 hrs by immunofluorescence analysis; assay type: functional
HepG2 [10] = test: Induction of apoptosis in human HepG2 cells assessed as activation of caspase 8 at 80 uM measured after 48 hrs by immunofluorescence assay; assay type: functional, cell-based
[11] = Toxicity in Kunming mouse implanted with mouse H22 cells assessed as change in mouse body weight at 100 mg/kg, iv administered for 7 consecutive days starting from day 8 post inoculation and measured after 16 days (reference value: 21 %); assay type: organism-based; conditions: in vivo, 192 h, time 8 day
HepG2 [12] = test: Induction of lysosomal impairment in human HepG2 cells at 80 uM after 48 hrs by Lyso-tracker Red staining based assay; assay type: functional, cell-based
HepG2 [13] = test: Induction of apoptosis in human HepG2 cells assessed as activation of caspase 3 at 80 uM measured after 48 hrs by immunofluorescence assay; assay type: functional, cell-based
HepG2 [14] = test: Induction of apoptosis in human HepG2 cells assessed as activation of caspase 9 at 80 uM measured after 48 hrs by immunofluorescence assay; assay type: functional, cell-based
[15] = Toxicity in Kunming mouse implanted with mouse H22 cells assessed as mouse mortality at 100 mg/kg, iv administered for 7 consecutive days starting from day 8 post inoculation and measured after 16 days; assay type: organism-based; conditions: in vivo, 192 h, time 8 day
HepG2 [16] = test: Induction of ROS generation in human HepG2 cells at 80 uM after 48 hrs by DCFH-DA staining based assay; assay type: functional, cell-based
H22 [17] = test: Antitumor activity against mouse H22 cells implanted in Kunming mouse assessed as tumor growth inhibition at 100 mg/kg, iv administered for 7 consecutive days starting from day 8 post inoculation and measured after 16 days relative to control; assay type: functional; conditions: 192 h, time 8 day, read-out: TGI
H22 [18] = test: Antitumor activity against mouse H22 cells implanted in Kunming mouse assessed as reduction in tumor weight at 100 mg/kg, iv administered for 7 consecutive days starting from day 8 post inoculation and measured after 16 days (reference value: 2.15 +/- 0.51 g); assay type: functional; conditions: time 8 day
H22 [19] = test: Antimetastatic activity against mouse H22 cells implanted in Kunming mouse assessed as inhibition of metastasis at 100 mg/kg, iv administered for 7 consecutive days starting from day 11 post inoculation and measured after 18 days relative to control; assay type: functional; conditions: 192 h, time 8 day
HepG2 [20] = test: Induction of mitochondrial membrane potential loss in human HepG2 cells at 80 uM after 48 hrs by Rh123 staining based assay; assay type: functional, cell-based
[21] = Toxicity in Kunming mouse implanted with mouse H22 cells assessed as change in body weight at 100 mg/kg, iv administered for 7 consecutive days starting from day 11 post inoculation and measured after 18 days (reference value: 5.2 %); assay type: organism-based; conditions: in vivo, 192 h, time 8 day
[22] = Toxicity in iv dosed Kunming mouse assessed as maximum tolerated dose; assay type: organism-based; conditions: in vivo
[23] = Cytotoxicity against human QSG7701 cells assessed as inhibition of cell proliferation at 5 uM measured after 48 hrs by MTT assay relative to control; assay type: cell-based
SMMC-7721 [24] = test: Antiproliferative activity against human […] cells assessed as inhibition of cell proliferation at 1 uM measured after 48 hrs by MTT assay relative to control; assay type: functional
[25] = Toxicity in Kunming mouse implanted with mouse H22 cells assessed as change in mouse body weight at 0.4 mg/kg, iv administered for 7 consecutive days starting from day 8 post inoculation and measured after 16 days (reference value: 21 %); assay type: organism-based; conditions: in vivo, 192 h, time 8 day
[26] = Cytotoxicity against human QSG7701 cells assessed as inhibition of cell proliferation at 1 uM measured after 48 hrs by MTT assay relative to control; assay type: cell-based
H22 [27] = test: Antimetastatic activity against mouse H22 cells implanted in Kunming mouse assessed as inhibition of metastasis at 0.4 mg/kg, iv administered for 7 consecutive days starting from day 11 post inoculation and measured after 18 days relative to control; assay type: functional; conditions: 192 h, time 8 day
[28] = Toxicity in Kunming mouse implanted with mouse H22 cells assessed as mouse mortality at 0.4 mg/kg, iv administered for 7 consecutive days starting from day 8 post inoculation and measured after 16 days; assay type: organism-based; conditions: in vivo, 192 h, time 8 day
HepG2 [29] = test: Antiproliferative activity against human HepG2 cells assessed as inhibition of cell proliferation at 5 uM measured after 48 hrs by MTT assay relative to control; assay type: functional
H22 [30] = test: Antitumor activity against mouse H22 cells implanted in Kunming mouse assessed as tumor growth inhibition at 0.4 mg/kg, iv administered for 7 consecutive days starting from day 8 post inoculation and measured after 16 days relative to control; assay type: functional; conditions: 192 h, time 8 day, read-out: TGI
SMMC-7721 [31] = test: Antiproliferative activity against human […] cells assessed as inhibition of cell proliferation at 5 uM measured after 48 hrs by MTT assay relative to control; assay type: functional
[32] = Toxicity in Kunming mouse implanted with mouse H22 cells assessed as change in body weight at 0.4 mg/kg, iv administered for 7 consecutive days starting from day 11 post inoculation and measured after 18 days (reference value: 5.2 %); assay type: organism-based; conditions: in vivo, 192 h, time 8 day
HepG2 [33] = test: Antiproliferative activity against human HepG2 cells assessed as inhibition of cell proliferation at 1 uM measured after 48 hrs by MTT assay relative to control; assay type: functional
H22 [34] = test: Antitumor activity against mouse H22 cells implanted in Kunming mouse assessed as reduction in tumor weight at 0.4 mg/kg, iv administered for 7 consecutive days starting from day 8 post inoculation and measured after 16 days (reference value: 2.15 +/- 0.51 g); assay type: functional; conditions: time 8 day
H22 [35] = test: Antimetastatic activity against mouse H22 cells implanted in Kunming mouse assessed as number of metastatic focus at 0.4 mg/kg, iv administered for 7 consecutive days starting from day 11 post inoculation and measured after 18 days (reference value: 5.73 +/- 14.6); assay type: functional; conditions: time 8 day

Row | Compound | inhibition at 30 µM (HepG2 [1]) | inhibition at 100 µM (HepG2 [2]) | inhibition at 30 µM (SMMC-7721 [3]) | inhibition at 48 h, 100 µM [4] | inhibition at 48 h, 30 µM [5] | inhibition at 100 µM (SMMC-7721 [6]) | other results
1 | NCCCCNCCCNCC(=O)NCc1cccc2c(=O)cc(-c3cccc4ccccc34)oc12 | < 5% | 28.9% | 7.6% | 22.4% | < 5% | 32.5% | 
2 | NCCCCNCCCCNCC(=O)NCc1cccc2c(=O)cc(-c3cccc4ccccc34)oc12 | 62% | 75.9% | 70.2% | 74.4% | 46.7% | 85.5% | 
3 | CC(=O)Oc1ccccc1C(=O)O |  |  |  |  |  |  | Activity (Mus musculus [7]): Active; Activity (Mus musculus [8]): Active; Activity (Mus musculus [9]): Active
4 | NCCCCNCC(=O)NCc1cccc2c(=O)cc(-c3cccc4ccccc34)oc12 | < 5% | 16.1% | < 5% | 10.6% | < 5% | 39.8% | 
5 | CN(C)CCNCC(=O)NCc1cccc2c(=O)cc(-c3cccc4ccccc34)oc12 | < 5% | 7.5% | < 5% | 17.9% | < 5% | 16.6% | 
6 | CCCCNCC(=O)NCc1cccc2c(=O)cc(-c3cccc4ccccc34)oc12 | 6% | 21.6% | 14.6% | 41.7% | 19.6% | 28.4% | 
7 | O=c1c(O)c(-c2ccc(O)c(O)c2)oc2cc(O)cc(O)c12 [QUERCETIN] | 33.2% | 56.3% | 29.5% | 36% | < 5% | 62.9% | Activity (HepG2 [10]): Active; Activity [11]: 6.3%; Activity (HepG2 [12]): Active; Activity (HepG2 [13]): Active; Activity (HepG2 [14]): Active; Activity [15]: Non-Toxic; Activity (HepG2 [16]): Active; inhibition in vivo at 100 mg/kg (H22 [17]): 39.7%; Activity (H22 [18]): 1.3 g; inhibition in vivo at 100 mg/kg (H22 [19]): 34.1%; Activity (HepG2 [20]): Active; Activity [21]: 2.1%
8 | O=C1c2c(O)ccc(O)c2C(=O)c2c(NCCNCCO)ccc(NCCNCCO)c21 [MITOXANTRONE] |  |  |  |  |  |  | MTD [22]: 0.4 mg/kg; inhibition at 48 h, 5 µM [23]: 82.5%; inhibition at 1 µM (SMMC-7721 [24]): 20.5%; Activity [25]: -6.6%; inhibition at 48 h, 1 µM [26]: 75.8%; inhibition in vivo at 0.4 mg/kg (H22 [27]): 49.2%; Activity [28]: Non-Toxic; inhibition at 5 µM (HepG2 [29]): 78.6%; inhibition in vivo at 0.4 mg/kg (H22 [30]): 73.4%; inhibition at 5 µM (SMMC-7721 [31]): 62.2%; Activity [32]: -0.8%; inhibition at 1 µM (HepG2 [33]): 41.2%; Activity (H22 [34]): 0.57 g; Activity (H22 [35]): 29.1

— ChEMBL document CHEMBL4715719, “Synthesis and biological properties of polyamine modified flavonoids as hepatocellular carcinoma inhibitors” (Eur J Med Chem, 2016)
